Assay results published in BindingDB's records for doi:10.7270/Q2GM89G6 (n/a, 1995).

Each compound was assayed against Protein kinase C gamma type (Rattus norvegicus, UniProt P63319) (assay: Inhibition of [3H]phorbol-12,13-dibutyrate (PDBu) binding to rat brain protein kinase C gamma regulatory domain).
Compound `CC(C)[C@H]1C(=O)N[C@H](CO)Cc2c[nH]c3ccc4c(c23)N1[C@H](C)C4` has an IC50 of 1.26 µM. Compound `CC(C)[C@H]1C(=O)N[C@H](CO)Cc2c[nH]c3ccc4c(c23)N1[C@@H](C)C4` has an IC50 of 24 µM. `Cc1cc2ccc3[nH]cc4c3c2n1[C@@H](C(C)C)C(=O)N[C@H](CO)C4` showed an IC50 of 10 µM. `Cc1ccc2[nH]cc3c2c1N(C)[C@@H](C(C)C)C(=O)N[C@H](CO)C3` was tested, and the IC50 was > 100 µM. With `CC(C)[C@H]1C(=O)N[C@H](CO)Cc2c[nH]c3cccc(c23)N1C` the IC50 was 2.75 µM.
